Source: patent US20090054392A1, “NAPHTHYLPYRIMIDINE, NAPHTHYLPYRAZINE AND NAPHTHYLPYRIDAZINE ANALOGS AND THEIR USE AS AGONISTS OF THE WNT-BETA-CATENIN CELLULAR MESSAGING SYSTEM” (Wyeth, priority 2007, published 2009)

System: Dkk1-LRP5-TCF-Luciferase
Assay: Functional Dkk1-LRP5-TCF-Luciferase Assay in U2OS Cells
Details: for fold induction at 2 µM / fold induction at 20 µM / EC50: Homo sapiens, U2OS; for fold induction at 2 µM: read-out: B = TCF ACTIVITY/DMSO CONTROL Fold induction @ 2.0 uM, 2.0 uM compound; for fold induction at 20 µM: read-out: C = TCF ACTIVITY/DMSO CONTROL Fold induction @ 20.0 uM, 20.0 uM compound; for A = MAX FOLD Induction/DMSO CONTROL: maximum fold induction over DMSO control

EC50 [µM]	A = MAX FOLD Induction/DMSO CONTROL [fold]	Structure (SMILES)	fold induction at 2 µM	fold induction at 20 µM
		NC[C@@H]1C[C@H]2C[C@@H]1CN2c1nccc(-c2ccc3ccccc3c2)n1 [1-{(1S,4S,5R)-2-[4-(2-naphthyl)pyrimidin-2-yl]-2-azabicyclo[2.2.1]hept-5-yl}methanamine]	1.1	
		NC[C@H]1C[C@H]2C[C@@H]1CN2c1nccc(-c2ccc3ccccc3c2)n1 [1-{(1S,4S,5S)-2-[4-(2-naphthyl)pyrimidin-2-yl]-2-azabicyclo[2.2.1]hept-5-yl}methanamine]	1.2	
		c1ccc2cc(-c3ccnc(N4CC[C@@H](N5CCCCCC5)C4)n3)ccc2c1 [1-{(3R)-1-[4-(2-naphthyl)pyrimidin-2-yl]pyrrolidin-3-yl}azepane]	1.25	1.3
3.64	5.120	OC1CCCN([C@@H]2CCN(c3nccc(-c4ccc5ccccc5c4)n3)C2)C1 (stereo partly drawn) [1-{(3R)-1-[4-(2-naphthyl)pyrimidin-2-yl]pyrrolidin-3-yl}piperidin-3-ol]	2.06	1.05
		OC1CCN([C@@H]2CCN(c3nccc(-c4ccc5ccccc5c4)n3)C2)CC1 [1-{(3R)-1-[4-(2-naphthyl)pyrimidin-2-yl]pyrrolidin-3-yl}piperidin-4-ol]	1.44	0.14
	3.220	c1ccc2cc(-c3ccnc(N4CC[C@H](N5CCCCCC5)C4)n3)ccc2c1 [1-{(3S)-1-[4-(2-naphthyl)pyrimidin-2-yl]pyrrolidin-3-yl}azepane]	3.97	
3.55	6.735	OC1CCCN([C@H]2CCN(c3nccc(-c4ccc5ccccc5c4)n3)C2)C1 (stereo partly drawn) [1-{(3S)-1-[4-(2-naphthyl)pyrimidin-2-yl]pyrrolidin-3-yl}piperidin-3-ol]	2.48	0.13
		OC1CCN([C@H]2CCN(c3nccc(-c4ccc5ccccc5c4)n3)C2)CC1 [1-{(3S)-1-[4-(2-naphthyl)pyrimidin-2-yl]pyrrolidin-3-yl}piperidin-4-ol]	1.31	0.26
1.19	3.950	NC[C@@H]1CCCN(c2nccc(-c3ccc4ccccc4c3)n2)CC1 [1-{(4R)-1-[4-(2-naphthyl)pyrimidin-2-yl]azepan-4-yl}methanamine]	2.66	
1.06	3.640	NC[C@H]1CCCN(c2nccc(-c3ccc4ccccc4c3)n2)CC1 [1-{(4S)-1-[4-(2-naphthyl)pyrimidin-2-yl]azepan-4-yl}methanamine]	3.86	
		NC[C@H]1CC[C@@H](c2nccc(-c3ccc4ccccc4c3)n2)CC1 [1-{cis-4-[4-(2-naphthyl)pyrimidin-2-yl]cyclohexyl}methanamine]	3.4	
		NC[C@H]1CC[C@@H](Oc2nccc(-c3ccc4ccccc4c3)n2)CC1 [1-{cis-4-[(4-naphthalen-2-ylpyrimidin-2-yl)oxy]cyclohexyl}methanamine]	4.2	
		O=C(NCCC1CCN(c2nccc(-c3ccc4ccccc4c3)n2)CC1)C(F)(F)F [2,2,2-trifluoro-N-(2-{1-[4-(2-naphthyl)pyrimidin-2-yl]piperidin-4-yl}ethyl)acetamide]	1.77	1.04
1.19	1.535	O=C(NCC[C@H]1CCCN1c1nccc(-c2ccc3ccccc3c2)n1)C(F)(F)F [2,2,2-trifluoro-N-(2-{(2R)-1-[4-(2-naphthyl)pyrimidin-2-yl]pyrrolidin-2-yl}ethyl)acetamide]	0.84	2.3
		O=C(NCC[C@@H]1CCCN1c1nccc(-c2ccc3ccccc3c2)n1)C(F)(F)F [2,2,2-trifluoro-N-(2-{(2S)-1-[4-(2-naphthyl)pyrimidin-2-yl]pyrrolidin-2-yl}ethyl)acetamide]	1.44	0.89
		O=C(NCC1CN(c2nccc(-c3ccc4ccccc4c3)n2)C1)C(F)(F)F [2,2,2-trifluoro-N-({1-[4-(2-naphthyl)pyrimidin-2-yl]azetidin-3-yl}methyl)acetamide]	1.77	
		O=Cc1ccc2cc(-c3ccnc(N4CCC(CNC(=O)C(F)(F)F)CC4)n3)ccc2c1 [2,2,2-trifluoro-N-({1-[4-(6-formyl-2-naphthyl)pyrimidin-2-yl]piperidin-4-yl}methyl)acetamide]	1.11	0.04
		CN(CCN(C)[C@@H]1CCN(c2nccc(-c3ccc4ccccc4c3)n2)C1)C(=O)C(F)(F)F [2,2,2-trifluoro-N-methyl-N-[2-(methyl{(3R)-1-[4-(2-naphthyl)pyrimidin-2-yl]pyrrolidin-3-yl}amino)ethyl]acetamide]	1.5	
		O=C(NC1CCCN(c2nccc(-c3ccc4ccccc4c3)n2)CC1)C(F)(F)F (stereo not shown) [2,2,2-trifluoro-N-{1-[4-(2-naphthyl)pyrimidin-2-yl]azepan-4-yl}acetamide]	1.1	1.87

EC50 [µM]	A = MAX FOLD Induction/DMSO CONTROL [fold]	Structure (SMILES)	fold induction at 2 µM	fold induction at 20 µM
		O=C(N[C@@H]1CCN(c2nccc(-c3ccc4ccccc4c3)n2)C1)C(F)(F)F [2,2,2-trifluoro-N-{(3R)-1-[4-(2-naphthyl)pyrimidin-2-yl]pyrrolidin-3-yl}acetamide]	1.97	
25.9	3.620	O=C(N[C@H]1CCN(c2nccc(-c3ccc4ccccc4c3)n2)C1)C(F)(F)F [2,2,2-trifluoro-N-{(3S)-1-[4-(2-naphthyl)pyrimidin-2-yl]pyrrolidin-3-yl}acetamide]	1.59	1.66
15.5	2.960	CN1CCN(c2nccc(-c3ccc4ccccc4c3)n2)CC1 [2-(4-methylpiperazin-1-yl)-4-(2-naphthyl)pyrimidine]	1.16	1.81
		CC1CCN(c2nccc(-c3ccc4ccccc4c3)n2)CC1 [2-(4-methylpiperidin-1-yl)-4-(2-naphthyl)pyrimidine]	1.51	
	3.430	CCN(CCO)[C@@H]1CCN(c2nccc(-c3ccc4ccccc4c3)n2)C1 [2-(ethyl{(3R)-1-[4-(2-naphthyl)pyrimidin-2-yl]pyrrolidin-3-yl}amino)ethanol]	1.8	5.83
3.89	6.695	CCN(CCO)[C@H]1CCN(c2nccc(-c3ccc4ccccc4c3)n2)C1 [2-(ethyl{(3S)-1-[4-(2-naphthyl)pyrimidin-2-yl]pyrrolidin-3-yl}amino)ethanol]	1.42	5.58
		NCCC1CN(c2nccc(-c3ccc4ccccc4c3)n2)C1 [2-[1-(4-naphthalen-2-ylpyrimidin-2-yl)azetidin-3-yl]ethanamine]	2.4	
		c1ccc2cc(-c3ccnc(N4CCC(Cn5ccnc5)C4)n3)ccc2c1 (stereo not shown) [2-[3-(1H-imidazol-1-ylmethyl)pyrrolidin-1-yl]-4-(2-naphthyl)pyrimidine]	1.28	0.38
	2.500	c1ccc2cc(-c3ccnc(N4CCC(CN5CCC5)C4)n3)ccc2c1 (stereo not shown) [2-[3-(azetidin-1-ylmethyl)pyrrolidin-1-yl]-4-(2-naphthyl)pyrimidine]	1.73	
		ClCC1CCN(c2nccc(-c3ccc4ccccc4c3)n2)C1 (stereo not shown) [2-[3-(chloromethyl)pyrrolidin-1-yl]-4-(2-naphthyl)pyrimidine]	1.32	0.49
11.7	4.630	c1ccc2cc(-c3ccnc(N4CCC(Cn5ccnc5)CC4)n3)ccc2c1 [2-[4-(1H-imidazol-1-ylmethyl)piperidin-1-yl]-4-(2-naphthyl)pyrimidine]	1.13	3.34
		[N-]=[N+]=NCCC1CCN(c2nccc(-c3ccc4ccccc4c3)n2)CC1 [2-[4-(2-azidoethyl)piperidin-1-yl]-4-(2-naphthyl)pyrimidine]	1	1.67
	1.630	O=C(c1ccco1)N1CCN(c2nccc(-c3ccc4ccccc4c3)n2)CC1 [2-[4-(2-furoyl)piperazin-1-yl]-4-(2-naphthyl)pyrimidine]	1.49	3.62
		c1ccc2c(c1)CCN(c1nccc(-c3ccc4ccccc4c3)n1)C2 [2-[4-(2-naphthyl)pyrimidin-2-yl]-1,2,3,4-tetrahydroisoquinoline]	0.95	1.38
		c1ccc2cc(-c3ccnc(N4CCC5(CCNCC5)C4)n3)ccc2c1 [2-[4-(2-naphthyl)pyrimidin-2-yl]-2,8-diazaspiro[4.5]decane]	1.7	
	1.960	c1ccc2cc(-c3ccnc(N4CC[C@@H](n5ccnc5)C4)n3)ccc2c1 [2-[(3R)-3-(1H-imidazol-1-yl)pyrrolidin-1-yl]-4-(2-naphthyl)pyrimidine]	1.31	3.9
	3.290	c1ccc2cc(-c3ccnc(N4CC[C@H](Cn5ccnc5)C4)n3)ccc2c1 [2-[(3R)-3-(1H-imidazol-1-ylmethyl)pyrrolidin-1-yl]-4-(2-naphthyl)pyrimidine]	1.95	3.04
	1.020	CN1CCN([C@@H]2CCN(c3nccc(-c4ccc5ccccc5c4)n3)C2)CC1 [2-[(3R)-3-(4-methylpiperazin-1-yl)pyrrolidin-1-yl]-4-(2-naphthyl)pyrimidine]	3.67	0.01

Structure (SMILES)	EC50 [µM]	A = MAX FOLD Induction/DMSO CONTROL [fold]	fold induction at 2 µM	fold induction at 20 µM
CN(c1nccc(-c2ccc3ccccc3c2)n1)C1CCN(CC(N)=O)CC1 [2-(4-{methyl[4-(2-naphthyl)pyrimidin-2-yl]amino}piperidin-1-yl)acetamide]		2.215	2.62	0.02
